Test results published in patent US9913901B2, “Combination therapy for treating HER2-positive cancers” (Merrimack Pharmaceuticals, Inc., priority 2012, dated 2018).

System: human cardiomyocytes

COc1cccc2c1C(=O)c1c(O)c3c(c(O)c1C2=O)C[C@@](O)(C(=O)CO)C[C@@H]3O[C@H]1C[C@H](N)[C@H](O)[C@H](C)O1 [free doxorubicin, (8S,10S)-10-(4-amino-5 hydroxy-6-methyl-tetrahydro-2H-pyran-2-yloxy)-6,8,11-trihydroxy-8-(2-hydroxyacetyl)-1-methoxy-7,8,9,10-tetrahydrotetracene-5,12-dione]
level of uptake into human cardiomyocytes: relatively much higher compared to both MM-302 and untargeted pegylated liposomal doxorubicin
